The experiment concerns OVCAR-8 cells. The experiment is described as follows: Drug-siRNA combination screen: 346-compound anticancer library at 100 nM, CCK-8 viability. The conditions noted are these: for synergy / antagonism of drug with gene knockdowns, in words: panel of 18 siRNA knockdowns.
Setting [1] is: OVCAR-8, drug 100 nM plus siRNA knockdown of each of 18 genes, distance VAB−VA×VB in SD, single gene contributes at most +5 / −5, negative = synergy, positive = antagonism.
The mark [2] stands for this setting: OVCAR-8, drug 100 nM, siRNA knockdown.

Like-named read-outs stand apart in the source and are kept apart here.

Consider `COC1=C(OC)C(=O)C(C/C=C(\C)CC/C=C(\C)CC/C=C(\C)CC/C=C(\C)CC/C=C(\C)CC/C=C(\C)CC/C=C(\C)CC/C=C(\C)CC/C=C(\C)CCC=C(C)C)=C(C)C1=O` [Coenzyme Q10], for which the “Score (sum of observed SD values for 18 genes)” value under setting [1] was −4.69 SD.
As to `CC1(COc2ccc3c(c2)ncn3-c2ccc3cccc(N4CCC(N)CC4)c3n2)COC1` [Crenolanib], the “Score (sum of observed SD values for 18 genes)” value under setting [1] is listed as −18.09 SD.
`CC1=C2C[C@H]3[C@@H](CC=C4C[C@@H](O)CC[C@@]43C)[C@@H]2CC[C@]12O[C@@H]1C[C@H](C)CN[C@H]1[C@H]2C` [Cyclopamine]: the “Score (sum of observed SD values for 18 genes)” value under setting [1] stood at 3.03 SD.
For `NC(=O)CC[C@@H](N)C(=O)O` [D-glutamine], the “Score (sum of observed SD values for 18 genes)” value under setting [1] came out at 0.27 SD.
`C[C@H](NC(=O)Cc1cc(F)cc(F)c1)C(=O)N[C@H](C(=O)OC(C)(C)C)c1ccccc1` [DAPT-(GSI-IX)]: the “Score (sum of observed SD values for 18 genes)” value under setting [1] came to 12.69 SD.
`COc1cc2ncnc(Nc3ccc(F)c(Cl)c3)c2cc1NC(=O)/C=C/CN1CCCCC1` [Dacomitinib]: the “Score (sum of observed SD values for 18 genes)” value under setting [1] is on record as -68.29 SD. Moreover, under setting [2], the “number of genes (of 18) with high synergy with the drug” value was found to be 15 genes.
As to `CCC(CC)CC1(C(=O)Nc2ccccc2SC(=O)C(C)C)CCCCC1` [Dalcetrapid], the “Score (sum of observed SD values for 18 genes)” value under setting [1] is −31.1 SD.
Take `CO[C@@H](C(=O)N1Cc2n[nH]c(NC(=O)c3ccc(N4CCN(C)CC4)cc3)c2C1)c1ccccc1` [Danusertib]: the “Score (sum of observed SD values for 18 genes)” value under setting [1] is −2.99 SD.
As for `CCOc1ccc(Cc2cc([C@@H]3O[C@H](CO)[C@@H](O)[C@H](O)[C@H]3O)ccc2Cl)cc1` [Dapagliflozin], under setting [1], the “Score (sum of observed SD values for 18 genes)” value is reported as −15.72 SD.
For the compound `CC(=O)OCC(=O)[C@@]1(O)[C@H](C)C[C@H]2[C@@H]3CCC4=CC(=O)C=C[C@]4(C)[C@@]3(F)[C@@H](O)C[C@@]21C` [Dexamethasone Acetate], the “Score (sum of observed SD values for 18 genes)” value under setting [1] is listed as 6.26 SD.
Turning to `C[C@@H]1C[C@H]2[C@@H]3CCC4=CC(=O)C=C[C@]4(C)[C@@]3(F)[C@@H](O)C[C@]2(C)[C@@]1(O)C(=O)CO` [Dexamethasone], under setting [1], the “Score (sum of observed SD values for 18 genes)” value is recorded as −3.28 SD.
Consider `O=S(=O)([O-])CCSSCCS(=O)(=O)[O-].[Na+].[Na+]` [Dimesna], for which, under setting [1], the “Score (sum of observed SD values for 18 genes)” value was −2.17 SD.
In the case of `CCN(CC)C(=S)SSC(=S)N(CC)CC` [Disulfiram], under setting [1], the “Score (sum of observed SD values for 18 genes)” value was 37.83 SD.
Regarding `Cc1ccc(-n2nc(C(C)(C)C)cc2NC(=O)Nc2ccc(OCCN3CCOCC3)c3ccccc23)cc1` [Doramapimod], under setting [1], the “Score (sum of observed SD values for 18 genes)” value is recorded as -50.99 SD. Moreover, the “number of genes (of 18) whose knockdown synergizes with the drug” value under setting [2] was 11 genes.
As to `CCN[C@H]1C[C@H](C)S(=O)(=O)c2sc(S(N)(=O)=O)cc21.Cl` [Dorzolamide HCI], the “Score (sum of observed SD values for 18 genes)” value under setting [1] worked out at 9.66 SD.
With `CN1CCN(c2ccc3nc(-c4c(N)c5c(F)cccc5[nH]c4=O)[nH]c3c2)CC1` [Dovitinib], under setting [1], the “Score (sum of observed SD values for 18 genes)” value is listed as −22.96 SD.
As for `C=C1/C(=C\C=C2/CCC[C@]3(C)[C@@H]([C@H](C)/C=C/[C@H](C)C(C)C)CC[C@@H]23)C[C@@H](O)C[C@@H]1O` [Doxercalciferol], the “Score (sum of observed SD values for 18 genes)” value under setting [1] is −0.53 SD.
As for `COc1cccc2c1C(=O)c1c(O)c3c(c(O)c1C2=O)C[C@@](O)(C(=O)CO)C[C@@H]3O[C@H]1C[C@H](N)[C@H](O)[C@H](C)O1` [Doxorubicin], the “Score (sum of observed SD values for 18 genes)” value under setting [1] is given as 15.09 SD.
Regarding `Cc1cc(Nc2cc(N3CCN(C)CC3)nc(/C=C/c3ccccc3)n2)n[nH]1` [ENMD-2076], the “Score (sum of observed SD values for 18 genes)” value under setting [1] is recorded as −47.04 SD. Moreover, the “synergy / antagonism of drug with gene knockdowns, in words” value (from here on “synergy / antagonism of drug”) (OVCAR-8, drug 100 nM) is given as “significant synergy”.
Take `NC(=O)C1CCCc2c1[nH]c1ccc(Cl)cc21` (stereo not shown) [EX 527]: the “Score (sum of observed SD values for 18 genes)” value under setting [1] is −22.45 SD.
As for `CN(NC(=O)CC(=O)NN(C)C(=S)c1ccccc1)C(=S)c1ccccc1` [Elesclomol], under setting [1], the “Score (sum of observed SD values for 18 genes)” value is recorded as 11.26 SD.
Regarding `Nc1ccccc1NC(=O)c1ccc(CNC(=O)OCc2cccnc2)cc1` [Entinostat], the “Score (sum of observed SD values for 18 genes)” value under setting [1] turned out to be 12.38 SD. Moreover, for the setting “OVCAR-8, drug 100 nM”, the “synergy / antagonism of drug” value is “frequently antagonized by knockdown of specific genes”.
For `CNC(=O)c1ccc(N2C(=S)N(c3ccc(C#N)c(C(F)(F)F)c3)C(=O)C2(C)C)cc1F` [Enzalutamid], the “Score (sum of observed SD values for 18 genes)” value is on record as −1.24 SD.
With `Cn1cc(C2=C(c3cn(C4CCN(Cc5ccccn5)CC4)c4ccccc34)C(=O)NC2=O)c2ccccc21` [Enzastaurin], the “Score (sum of observed SD values for 18 genes)” value under setting [1] is listed as −6.53 SD.
In the case of `O=C(O[C@@H]1Cc2c(O)cc(O)cc2O[C@@H]1c1cc(O)c(O)c(O)c1)c1cc(O)c(O)c(O)c1` [Epigallocatechin gallate], under setting [1], the “Score (sum of observed SD values for 18 genes)” value is reported as 3.64 SD.
In the case of `C/C(=C\c1csc(C)n1)[C@@H]1C[C@@H]2O[C@@H]2CCC[C@H](C)[C@H](O)[C@@H](C)C(=O)C(C)(C)[C@@H](O)CC(=O)O1` [Epothilone A], the “Score (sum of observed SD values for 18 genes)” value under setting [1] was 16.97 SD.
For `C/C(=C\c1csc(C)n1)[C@@H]1C[C@@H]2O[C@]2(C)CCC[C@H](C)[C@H](O)[C@@H](C)C(=O)C(C)(C)[C@@H](O)CC(=O)O1` [Epothilone B], the “Score (sum of observed SD values for 18 genes)” value under setting [1] is 17.57 SD.
For the compound `Cc1c(C(=O)Nc2ccc(N3C[C@@H](C)O[C@@H](C)C3)nc2)cccc1-c1ccc(OC(F)(F)F)cc1` [Erismodegib], the “Score (sum of observed SD values for 18 genes)” value under setting [1] is on record as 3.22 SD.
Same read-out and setting: the same measure for `C[C@]12CC[C@@H]3c4ccc(O)cc4CC[C@H]3[C@@H]1CC[C@@H]2O` [Estradiol]: −26.58 SD.
On to `C[C@]12CC[C@@H]3c4ccc(O)cc4CC[C@H]3[C@@H]1CCC2=O` [Estrone], for which the “Score (sum of observed SD values for 18 genes)” value under setting [1] is recorded as −21.19 SD.
With `CO[C@H]1C[C@@H]2CC[C@@H](C)[C@@](O)(O2)C(=O)C(=O)N2CCCC[C@H]2C(=O)O[C@H]([C@H](C)C[C@@H]2CC[C@@H](OCCO)[C@H](OC)C2)CC(=O)[C@H](C)/C=C(\C)[C@@H](O)[C@@H](OC)C(=O)[C@H](C)C[C@H](C)/C=C/C=C/C=C/1C` [Everolimus], the “number of genes (of 18) whose knockdown synergizes with the drug” value under setting [2] was 14 genes.
In the case of `O=C1[C@H](CC[C@H](O)c2ccc(F)cc2)[C@@H](c2ccc(O)cc2)N1c1ccc(F)cc1` [Ezetimibe], under setting [1], the “Score (sum of observed SD values for 18 genes)” value was −5.31 SD.
As to `Cc1nc(-c2ccc(OCC(C)C)c(C#N)c2)sc1C(=O)O` [Febuxostat], the “Score (sum of observed SD values for 18 genes)” value under setting [1] is recorded as −18.04 SD.
Turning to `Cc1cnc(Nc2ccc(OCCN3CCCC3)cc2)nc1Nc1cccc(S(=O)(=O)NC(C)(C)C)c1` [Fedratinib], the “Score (sum of observed SD values for 18 genes)” value under setting [1] came out at 56.68 SD.
Turning to `CN1CC[C@H](c2c(O)cc(O)c3c(=O)cc(-c4ccccc4Cl)oc23)[C@H](O)C1` [Flavopiridol], the “Score (sum of observed SD values for 18 genes)” value under setting [1] was −23.63 SD.
For `Nc1nc(F)nc2c1ncn2[C@@H]1O[C@H](COP(=O)(O)O)[C@@H](O)[C@@H]1O` [Fludarabine Phosphate], the “Score (sum of observed SD values for 18 genes)” value is reported as −11.05 SD.
As for `CC(C)C(=O)Nc1ccc([N+](=O)[O-])c(C(F)(F)F)c1` [Flutamide], the “Score (sum of observed SD values for 18 genes)” value under setting [1] came out at 3.96 SD.
Still for that read-out and setting: the same measure for `CC(C)n1c(/C=C/C(O)CC(O)CC(=O)O)c(-c2ccc(F)cc2)c2ccccc21` (stereo not shown) [Fluvastatin]: −20.51 SD; for `C[C@]12CCC(=O)C(O)=C1CC[C@@H]1[C@@H]2CC[C@]2(C)C(=O)CC[C@@H]12` [Formestane]: −14.97 SD.
`COc1cc(Nc2ncc(F)c(Nc3ccc4c(n3)N(COP(=O)(O)O)C(=O)C(C)(C)O4)n2)cc(OC)c1OC` [Fostamatinib]: the “Score (sum of observed SD values for 18 genes)” value under setting [1] is −4.27 SD.
The same measure, in the same setting: with `O=c1[nH]c(=O)n(C2CCCO2)cc1F` (stereo not shown) [Ftorafur] the figure was −9.75 SD; with `OCCn1cc(-c2ccc3c(c2)CC/C3=N\O)c(-c2ccncc2)n1` [GDC - 0879], 23.19 SD.
Turning to `CS(=O)(=O)N1CCN(Cc2cc3nc(-c4cccc5[nH]ncc45)nc(N4CCOCC4)c3s2)CC1` [GDC-0941], the “Score (sum of observed SD values for 18 genes)” value under setting [1] is reported as -58.02 SD. The “synergy / antagonism of drug” value (OVCAR-8, drug 100 nM) is “synergy to the vast majority of genes”.
Consider `C[C@@H](Oc1cc(-n2cnc3ccc(CN4CCN(C)CC4)cc32)sc1C(N)=O)c1ccccc1C(F)(F)F` [GSK461364], for which, under setting [1], the “Score (sum of observed SD values for 18 genes)” value is on record as 4.65 SD.
As for `O=C(O)c1ccc(-c2c[nH]c3ncc(-c4ccccc4)cc23)cc1C1CCCC1` [GSK650394], under setting [1], the “Score (sum of observed SD values for 18 genes)” value was 12.12 SD.
Regarding `CCc1cc(Nc2nccc(-c3c(-c4ccc(OC)c(C(=O)Nc5c(F)cccc5F)c4)nc4ccccn34)n2)c(OC)cc1N1CCC(N2CCN(S(C)(=O)=O)CC2)CC1` [GSK1904529A], the “Score (sum of observed SD values for 18 genes)” value under setting [1] was −10.83 SD.
Take `COc1ncc(-c2ccc3nccc(-c4ccnnc4)c3c2)cc1NS(=O)(=O)c1ccc(F)cc1F` [GSK2126458]: the “Score (sum of observed SD values for 18 genes)” value under setting [1] is listed as −22.4 SD.
For `Cl.O=C(O)Cc1cccc(OCCCN(Cc2cccc(C(F)(F)F)c2Cl)CC(c2ccccc2)c2ccccc2)c1` [GW3965 HCI], the “Score (sum of observed SD values for 18 genes)” value under setting [1] was −11.35 SD.
In the case of `CC(C)c1onc(-c2c(Cl)cccc2Cl)c1COc1ccc(/C=C/c2cccc(C(=O)O)c2)c(Cl)c1` [GW4064], the “Score (sum of observed SD values for 18 genes)” value under setting [1] is on record as −12.2 SD.
Consider `CC(C)c1cc(-c2n[nH]c(=O)n2-c2ccc3c(ccn3C)c2)c(O)cc1O` [Ganetespib], for which, under setting [1], the “Score (sum of observed SD values for 18 genes)” value is 8.4 SD.
On the same count and under the same terms, the same measure for `COC1=C2C[C@@H](C)C[C@H](OC)[C@H](O)[C@@H](C)/C=C(\C)[C@H](OC(N)=O)[C@@H](OC)/C=C\C=C(/C)C(=O)NC(=CC1=O)C2=O` [Geldanamycin]: 4.47 SD; for `Cl.Nc1ccn([C@@H]2O[C@H](CO)[C@@H](O)C2(F)F)c(=O)n1` [Gemcitibine HCI]: 35.88 SD; for `Nc1ccn([C@@H]2O[C@H](CO)[C@@H](O)C2(F)F)c(=O)n1` [Gemcitibine]: 34.12 SD.

The record behind these values is patent US11946094B2, “Combination therapies and methods of use thereof” (Augusta University Research Institute, Inc., priority 2017, dated 2024).
